Results: US9249159B2, “Composition for treating hepatitis C virus, regulating phosphorylation of replicase” (Industry-Academic Cooperation Foundation, Yonsei University, priority 2011, dated 2016)

Legend:
Rho-kinase I (ROCKI) = test: ROCKI level in Huh7 cell by immunoblotting; assay type: cell-based; conditions: 48 hours
R-1 cell = test: Cytotoxicity / cell viability in R-1 cell; assay type: cell-based, human; conditions: R-1 cell versus parental Huh7, 72 hours
Experimental: Cytotoxicity of 17-DMAG was measured by using a reagent MTS [3-(4,5-dimethylthiazol-2-yl)-5-(3-carboxylmethoxyphenyl)-2-(4-sulfophenyl)-2H-tetrazolium] (Promega, Madison, Wis., USA) according to the protocols of the manufacturer. The experiment was carried out as follows.
Huh7 or R-1 cells (2×10^4 cell/well) were seeded in a 96-well plate and treated with 17-DMAG at different concentrations for 72 hours. Then, the culture medium was removed and a MTS substrate dissolved in the culture medium containing 5% FBS was added to each well of the plate. The cells were cultured at 37° C. for 1 hour, and absorbance at 490 nm was read in a 96-well micro plate automatic reading system using GloMax-Multi detection system (Promega).
An experiment was carried out to check whether or not 17-DMAG inhibited virus RNA replication in an R-1 cell in which autonomous replication of a genotype 1b HCV subgenomic replicon RNA was maintained. Before antiviral activity of 17-DMAG was evaluated, an MTS assay was carried out to evaluate whether or not the drug interfered with cell viability. To be specific, the R-1 cell loaded with a selective HCV subgenomic replicon (upper diagram) and its parental cell line Huh7 were treated with 17-DMAG at a certain concentration for 72 hours, and cell viability was evaluated by the MTS assay.

PRK2 = target: T1, PRK2 (Homo sapiens, UniProt Q16513); test: PRK2 phosphorylation (Thr816) and PRK2 level in R-1 cells by Western blot; assay type: cell-based; conditions: R-1 cell, 72 hours
T1 construct: endogenous in cells; host or cells: R-1 (Huh7-derived HCV replicon cells) and Huh7
Experimental: After the R-1 cell line was treated with the PRK2 inhibitor at a final concentration of 10 or 20 μM for 48 hours, phosphorylation or not of Thr^816 residue essential for activity of PRK2 was analyzed by Western blot using a phospho-PRK2 antibody to measure an expression level of phosphorylated PRK2. Immunoblotting using an anti-α-tubulin antibody was carried out to check whether or not the same amount of protein was loaded.
The levels of the proteins were measured by densitometric analysis of immunoblot, and the phosphorylated amounts and relative intensities calculated with respect to PDK1 and PDK2 were converted with respect to α-tubulin signals and then quantitated. As a result of three independent experiments showing similar results, a representative blot picture was illustrated.
Then, in order to check whether or not IFN-α affected a PDK1-PRK2 signaling pathway, the R-1 cell was treated with 100 IU/ml of IFN-α hourly for 6 hours. SDS-PAGE was carried out to the cell lysates, and immunoblotting was carried out. The immunoblotting with anti-α-tubulin antibody was used as an internal control for loading. A representative result from one of the three independent experiments showing a similar result was illustrated.

[1] = test system: genotype 1b HCV subgenomic replicon (R-1 cell line); test: HCV replication (HCV RNA by real-time RT-PCR, NS5B protein by Western blot) in R-1 subgenomic replicon cells; assay type: cell-based, hepatitis C virus genotype 1b; conditions: R-1 cell
Source text: In order to check a PRK2 phosphorylation inhibition effect of the novel inhibitors obtained in Example 1, R-1 cell line harboring HCV subgenomic replicons was used.
The R-1 cell line was comprised of cis-acting RNA elements of 5′ and 3′-end untranslated regions (UTR) essential for replication of HCV RNA, a selection marker inserted to select a replicated RNA into a portion from which a structural protein coding site was removed, and a non-structural protein (NS3-NS5B)-coding gene required for replication. In the replicon, the selection marker was expressed by the HCV 5′-UTR and internal ribosome entry site (IRES) as a part of a coding gene of a core protein as a structural protein and capsid protein, and HCV non-structural proteins were expressed by IRES of EMCV. In order to obtain replicon cells, a HCV subgenomic replicon RNA was obtained by means of in vitro transcription by using a T7 RNA polymerase, free ribonucleotide was removed by using a spin column, and introduced into a hepatocellular carcinoma cell line by electroporation. In the presence of G418, a stable cell line, i.e. a cell line showing a resistance to G418 through replication of HCV subgenome, was obtained. Expression of the HCV non-structural proteins in this cell line was analyzed by Western blot to confirm that replication was being carried out, and the R-1 cell line was constructed. It was observed that an HCV RNA copy number was about 10^7 copies/mL by a quantitative real-time PCR analysis using a TaqMan probe. The R-1 cell line was a cell line in which HCV RNA replication was being carried out, and thus it could be used to evaluate an HCV replication inhibition effect of a PRK2 activity inhibitor.
Then, after the R-1 cell line was treated with each of 5 screened PRK2 inhibitors, HA1077 currently and clinically used as a PRK2 activity inhibitor, and Y27632 having a PRK2 activity inhibition effect at a final concentration of 20 μM for 48 hours, levels of HCV NS5B protein and HCV RNA in cell lysates (50 μg) were analyzed by Western blot and real-time RT-PCR.
To do so, after the two cell lines were treated with the compound #17 at higher concentrations (60 and 100 μM) than 20 μM for 48 hours, an HCV RNA genome level was checked by a real-time RT-PCR analysis. A value was a mean±standard deviation (SD) of three independent measurements. HCV RNA titer was quantified by real-time PCR analysis. Three independent experiments were performed in triplicate.
5 derivatives (#18 to #22: refer to FIG. 2) were produced based on the inhibitor #17 showing the best effect. After the R-1 cell line was treated with each of these inhibitors or HA1077 and Y27632 at a final concentration of 20 μM for 48 hours, an HCV RNA genome level was checked by a real-time RT-PCR analysis and expressed in % with respect to a control treated with DSMO. Three independent experiments were conducted repeatedly three times. Data were expressed by mean±SD of the three experiments.
Total RNA was extracted from R-1 or HCV (JFH1)-infected cells using TRIzol LS reagent (Invitrogen, Carlsbad, Calif., USA) and purified according to the manufacturer's instructions. HCV RNA levels were quantified by RT-PCR using a primer pair and TaqMan probe targeting a region within the HCV 5′-UTR as described previously. Cellular glyceraldehyde-3-phosphate dehydrogenase was used as an internal control. Assays were performed using the DyNAmo Probe 2-step qRT-PCR Kit (Finnzymes, Espoo, Finland) and a CHROMO4 continuous fluorescence detector (Bio-Rad, Hercules, Calif., USA), according to the manufacturer's instructions.
Therefore, anti-HCV activity of 17-DMAG in the R-1 cell was tested at a level lower than 50 nM. To do so, the R-1 cell was treated with a vehicle (0.25% DMSO) or 17-DMAG for 72 hours and the cell lysates (50 μg) and antibodies specific to the proteins were immunoblotted to measure levels of the proteins. An anti-α-tubulin antibody (lower end panel) was used as an internal loading control. […]

pan-PKC (α, β, and γ) = test: pan-PKC level in Huh7 cell by immunoblotting; assay type: cell-based; conditions: 48 hours
Source text: Total cell lysates from cells treated with inhibitors or IFN-α by using antibodies to PDK1, p-PDK1 (S241), PRK2, and p-PRK2 (T816) (products of Cell Signaling Technology, Inc., Beverly, Mass., USA) was used for immunoblotting. In order to detect PKC isoforms α, β, and γ, a polyclonal antibody to a consensus sequence present in three PKC (protein kinase C) isoforms α, β and γ (anti-pan-PKC; Zymed Laboratories, San Francisco, Calif., USA) was used. An anti-α-tubulin antibody (Oncogene Research Products, Cambridge, Mass., USA) was carried out in immunoblotting for checking whether or not the same amount of protein was loaded.
In order to test whether or not PDK1 in Huh7 as an HCC cell line was destabilized by inhibition of Hsp90, 17-DMAG as a second-generation geldanamycin derivative known as being safer than geldanamycin or its derivative 17-AAG and effective for oral delivery was used (FIG. 8A). The Huh7 cell was treated for 48 hours along with an increase in concentration of 17-DMAG, and a steady state level of PDK1 was evaluated by immunoblotting.

T1 sequence (Q16513 whole entry): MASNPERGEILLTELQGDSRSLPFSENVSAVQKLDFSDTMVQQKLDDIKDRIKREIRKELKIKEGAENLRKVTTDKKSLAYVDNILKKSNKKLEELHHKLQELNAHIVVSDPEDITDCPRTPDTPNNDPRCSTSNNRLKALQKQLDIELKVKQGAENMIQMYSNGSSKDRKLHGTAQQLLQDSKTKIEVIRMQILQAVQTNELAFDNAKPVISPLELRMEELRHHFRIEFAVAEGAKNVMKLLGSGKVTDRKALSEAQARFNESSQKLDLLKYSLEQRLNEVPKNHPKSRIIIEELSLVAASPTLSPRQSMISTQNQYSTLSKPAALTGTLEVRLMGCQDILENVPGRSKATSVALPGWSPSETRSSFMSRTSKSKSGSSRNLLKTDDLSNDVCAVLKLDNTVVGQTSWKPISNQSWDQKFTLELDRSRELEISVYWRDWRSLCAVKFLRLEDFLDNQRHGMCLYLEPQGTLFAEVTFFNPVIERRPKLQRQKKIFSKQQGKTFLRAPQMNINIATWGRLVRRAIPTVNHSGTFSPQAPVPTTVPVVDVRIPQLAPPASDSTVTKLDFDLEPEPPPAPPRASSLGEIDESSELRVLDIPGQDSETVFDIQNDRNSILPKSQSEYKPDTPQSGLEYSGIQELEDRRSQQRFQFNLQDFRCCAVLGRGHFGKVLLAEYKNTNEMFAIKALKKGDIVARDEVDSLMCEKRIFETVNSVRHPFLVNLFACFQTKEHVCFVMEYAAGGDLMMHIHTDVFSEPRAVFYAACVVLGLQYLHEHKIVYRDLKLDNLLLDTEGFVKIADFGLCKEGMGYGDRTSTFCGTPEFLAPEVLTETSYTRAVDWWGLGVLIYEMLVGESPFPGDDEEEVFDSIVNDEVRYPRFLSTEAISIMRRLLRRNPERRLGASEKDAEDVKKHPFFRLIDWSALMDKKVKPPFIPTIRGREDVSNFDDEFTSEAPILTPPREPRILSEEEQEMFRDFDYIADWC

CO[C@H]1/C=C\C=C(/C)C(=O)NC2=CC(=O)C(NCCN(C)C)=C(C[C@@H](C)C[C@H](OC)[C@H](O)[C@@H](C)/C=C(\C)[C@@H]1OC(N)=O)C2=O [17-DMAG, 17-(dimethylaminoethylamino)-17-demethoxygeldanamycin]
steady state content of Rho-kinase I (ROCKI) (Rho-kinase I (ROCKI)): not significantly affected
sensitivity of cell viability (MTS assay) (R-1 cell): more sensitive to 17-DMAG than the parental cell line Huh7
stability of PRK2 (PRK2; 50 nM): not affected
level of p-PRK2 (PRK2; 10 or 50 nM): decreased
decrease in viral RNA ([1]; 50 nM 17-DMAG combined with 100 IU/mL IFN-α, 72 hours): hundredfold
inhibition of HCV RNA replication ([1]; 50 nM, 72 hours): about 50%
inhibition of virus replication ([1]; 17-DMAG 50 nM combined with HA1077 20 μM): approximately 80%
steady state content of pan-PKC (α, β, and γ) (pan-PKC (α, β, and γ)): not significantly affected
